This is an account of results in patent US6852735B1, “Siastatin B derivatives having a glycosidase inhibitory activity and processes for producing the same” (Zaidan Hojin Biseibutsu Kagaku Kenkyu Kai, priority 1998, dated 2005).

This experiment concerns the target T1, α-D-mannosidase (from jack bean) (Canavalia ensiformis, UniProt C0HJB3).
T1 sequence (C0HJB3 1-981): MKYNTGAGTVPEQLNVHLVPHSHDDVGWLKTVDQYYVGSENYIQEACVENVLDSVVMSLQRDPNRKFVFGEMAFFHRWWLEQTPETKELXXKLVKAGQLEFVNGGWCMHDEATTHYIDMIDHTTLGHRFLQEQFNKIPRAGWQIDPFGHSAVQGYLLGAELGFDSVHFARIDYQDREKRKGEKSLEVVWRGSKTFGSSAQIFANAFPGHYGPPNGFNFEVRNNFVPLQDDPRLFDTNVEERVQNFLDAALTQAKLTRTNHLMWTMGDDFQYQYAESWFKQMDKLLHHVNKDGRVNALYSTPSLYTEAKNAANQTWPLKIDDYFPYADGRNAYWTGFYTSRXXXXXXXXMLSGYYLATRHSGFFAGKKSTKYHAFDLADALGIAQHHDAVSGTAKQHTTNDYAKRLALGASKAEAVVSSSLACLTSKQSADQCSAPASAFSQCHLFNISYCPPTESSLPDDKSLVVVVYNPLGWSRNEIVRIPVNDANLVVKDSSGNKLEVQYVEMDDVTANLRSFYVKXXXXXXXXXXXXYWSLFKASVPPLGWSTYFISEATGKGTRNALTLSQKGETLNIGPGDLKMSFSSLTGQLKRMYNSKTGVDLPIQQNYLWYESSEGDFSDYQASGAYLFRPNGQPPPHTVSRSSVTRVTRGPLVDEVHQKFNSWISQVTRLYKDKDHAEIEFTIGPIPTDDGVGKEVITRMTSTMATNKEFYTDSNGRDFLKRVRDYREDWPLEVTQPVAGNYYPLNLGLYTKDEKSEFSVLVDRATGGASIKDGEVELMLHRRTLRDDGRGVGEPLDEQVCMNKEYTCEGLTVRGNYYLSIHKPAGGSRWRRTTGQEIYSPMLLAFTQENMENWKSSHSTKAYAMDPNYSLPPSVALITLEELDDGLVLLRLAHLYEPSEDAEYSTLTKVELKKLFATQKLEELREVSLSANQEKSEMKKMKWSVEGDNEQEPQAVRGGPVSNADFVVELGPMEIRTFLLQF
The experiment is described as follows: α-mannosidase inhibition (Test Example 5). It is filed as biochemical. The settings on record: for IC50: α-D-mannosidase from jack bean, substrate p-nitrophenyl-α-D-mannoside, sodium acetate buffer pH 4.5, read-out: 50% inhibiory concentration (IC50) Enzyme G (converted); for inhibition of α-D-mannosidase, in words: summary of Table 1. The protocol:
Thus, 0.5 mL of 0.025M citrate-phosphate buffer (pH 4.0), 0.1 mL of the same buffer containing 10 mM p-nitro-phenyl-N-acetyl-α-D-galactosaminide dissolved therein, and 0.1 mL of either water or an aqueous solution containing as the test compound any one of the compounds of the formulae (I), (V) and (X) according to this invention were mixed with each other and pre-incubated in a 96-wells titer plate at 37° C. for 10 minutes. After the completion of the pre-incubation, to the pre-incubated mixture was added 0.01 mL of 0.025 M citrate-phosphate buffer containing α-N-acetyl-galactosaminidase originated from chicken liver (a product of Sigma Company) which was dissolved in said buffer as a glycosidase to be tested. Thereafter, the enzymatic reaction was conducted at 37° C. for 30 minutes.
After the enzymatic reaction, to the reaction solution was added 1.0 mL of 0.3M glycine—sodium hydroxide buffer (pH 10.5), in order to terminate the enzymatic reaction. Thereafter, the absorbance [designated as value (a)] of light at 405 nm of the resulting reaction solution was measured. Concurrently, measurement was made of the absorbance [designated as value (b)] at 405 nm of the reaction solution as obtained in the control test where the enzymatic reaction was conducted without addition of the test compound. Further, measurements were made of the absorbance [designated as values (a′)] and the absorbance [[designated as values (b′)] at 405 nm of the solutions as obtained in the blank test and the control test, respectively, where the enzymatic reaction was not conducted in the assay test. The rate of inhibition to […] was calculated by the equation: [1-(a-a′)/(b-b′)]×100.
The test results obtained are summarized as IC50 value in Table 1 below.
This Test Example is a test example for determining the α-mannosidase or β-mannosidase-inhibitory activity of the compounds according to this invention.
The evaluation of the β-mannosidase-inhibitory activity was conducted according to a modification of the method described in the “Journal of Biological Chemistry”, 242, p.5474 (1967).
Namely, the test was conducted in the same manner as the test for the enzyme-inhibitory activity test described in Test Example 1, but with using α-mannosidase from jack bean or β-mannosidase from snail (both enzymes are products of Sigma Company) as the glycosidase enzyme, with using 0.05 M sodium acetate—acetate buffer (pH 4.5) as the buffer, and with using p-nitrophenyl-α-D-mannoside or p-nitrophenyl-β-D-mannoside as the substrate. Furthermore, absorbances of light were measured in the same manner as in Test Example 1. IC50 values of the test compound capable of giving the 50% inhibition to the enzymes were calculated.

Regarding `O=C(N[C@H]1NC[C@H](CO)[C@H](O)[C@@H]1O)C(F)(F)F` [Formula (I), 6-deacetamido-3-decarboxy-3-hydroxymethyl-6-trifluoroacetamido-siastain B], the IC50 was more than 387 µM. For the compound `CC(=O)NC1NCC(CO)C(O)C1O` (stereo not drawn) [Formula (V), 3-decarboxy-4-epi-3-hydroxymethyl-siastain B], the “inhibition of α-D-mannosidase, in words” value is listed as “inhibit strongly” and the IC50 was 318 µM.

As for `O=C(N[C@H]1NC[C@H](CO)[C@@H](O)[C@@H]1O)C(F)(F)F` [Formula (X), 6-deacetamido-3-decarboxy-4-epi-3-hydroxymethyl-6-trifluoroacetamido-siastain B], the “inhibition of α-D-mannosidase, in words” value was “inhibit strongly” and the IC50 was 2.9 µM.
